Data on one compound can be found in US6353029B1, “Storage stable tretinoin and 4-hydroxyanisole containing topical composition” (Bristol-Myers Squibb Company, priority 2000, dated 2002).

For series [1] the following is noted: cited from earlier work.
Series [2] is described as follows: Physical and chemical stability of tretinoin/4-HA cream compositions. The note with it: creams with other emulsifiers and thickeners added, containing 4-HA. The format is physicochemical. From the text:
In an effort to develop a pharmaceutically elegant dermatological composition containing tretinoin and 4-HA and having long term storage stability (as hereinafter defined), the present inventors incorporated the tretinoin and 4-HA in cream compositions. The oil-in-water emulsion based creams broke. Most likely, this was due to the 4-HA component as it is soluble in both the oil phase and water phase.

Structures are written as SMILES. Where two headings read alike, the source gives them in different places.

On to `CC1=C(/C=C/C(C)=C/C=C/C(C)=C/C(=O)O)C(C)(C)CCC1` [tretinoin, all-trans retinoic acid], for which the “shelf life of tretinoin” value in series [1] (aqueous gel with Cremophor RH40 as solubilizing agent) is 3 months; in series [1] (aqueous gel without Cremophor RH40) it was 10 months; in series [1] (propylene glycol-alcohol solution at 25° C, 0.05% tretinoin), 6.7 months. Besides, the stability of tretinoin result in series [2] is “very unstable”.
